Earlier results, collected in patent US20120046321A1, “METHODS OF TREATING ATRIAL FIBRILLATION WITH P38 INHIBITOR COMPOUNDS” (INTERMUNE, INC., priority 2005, published 2012).

Tested on: canine model, VTP-induced CHF
Conditions: Li et al., Circulation 2001; cited from earlier work

In the case of `CCOC(=O)[C@H](CCc1ccccc1)N[C@@H](C)C(=O)N1CCC[C@H]1C(=O)O` [enalapril], the “Ang II concentration” value is listed as “reduction”, the Arrhythmogenic atrial remodeling is listed as “less” and the ERK activation is listed as “reduction”.
